Tests used:
[1] = tested on: visceral pain writhing responses; experiment: Visceral pain, acetic acid induced writhing responses; type: in vivo, Male ICR mice; conditions: Mus musculus, iv, single dose 2 mg/kg i.v., compared to untreated group; read-out: Percent Inhibition of Visceral Pain Writhing Responses
Protocol: Male ICR mice (average body weight 25 g, Harlan, Israel) were pretreated by i.v. injection at volume dose of 5 ml/kg of vehicle, control and test compounds at various doses. Other routes of administration were tested for selected compounds including i.m. or s.c. injections at volume dose of 2.5 ml/kg and p.o. gavage at volume dose of 5 ml/kg. Compounds were dissolved in CREMOPHOR®:Ethanol and diluted 1:20 in saline prior to injection or gavage. Compounds administered i.v. were injected fifteen minutes before pain induction, whereas compounds administered i.m., s.c. or p.o. were supplied thirty minutes before pain induction, unless otherwise indicated. Each treatment group, except for controls comprising at least 30 animals, was composed of at least 6 animals. Fifteen or thirty minutes after drug administration, depending on the route of administration, the mice were injected i.p. with 10 ml/kg of 0.6% acetic acid and the number of visceral pain related behaviors (writhing movements globally defined as WR, i.e. stretching, contractions of the abdomen accompanied by an elongation of the body and extension of the hind limbs) was counted over a period of 5 minutes, starting 5 minutes after the acetic acid administration. These visceral pain related behaviors were globally defined as writhing responses (WR). The results are expressed as mean number of writhing responses ±SEM. Data were analyzed using analysis of variance (ANOVA) followed by post-hoc Fisher test.

Human CB2 Receptor = biological target: T1, Human CB2 Receptor (Homo sapiens, UniProt P34972); experiment: [35S]GTPγS-binding assay, hCB2; type: biochemical; conditions: for agonistic activity toward cannabinoid receptors (in words): hCB1 and hCB2
T1 construct: host or cells: Sf9 or HEK-293 cells (membranes)
T1 sequence (P34972 whole entry): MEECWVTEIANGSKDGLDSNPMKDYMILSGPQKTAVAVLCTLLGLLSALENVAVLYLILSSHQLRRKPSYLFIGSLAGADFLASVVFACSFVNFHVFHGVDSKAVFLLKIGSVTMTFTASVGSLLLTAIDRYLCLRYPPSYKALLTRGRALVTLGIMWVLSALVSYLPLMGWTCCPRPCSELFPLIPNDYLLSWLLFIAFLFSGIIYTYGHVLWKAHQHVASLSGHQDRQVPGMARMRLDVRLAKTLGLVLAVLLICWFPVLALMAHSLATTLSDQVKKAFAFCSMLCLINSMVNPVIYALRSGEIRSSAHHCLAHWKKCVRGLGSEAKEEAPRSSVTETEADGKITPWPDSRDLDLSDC
Protocol: (§1) Functional activity of compounds of the invention toward the cannabinoid receptors was determined by stimulation of [^35S]-GTPγS binding using membranes from HEK-293 cells expressing the hCB1 receptor and membranes expressing the hCB2 receptor derived from either Sf9 (PerkinElmer) or from HEK-293 cells. Activities were compared to that of the known cannabinoid full agonist CP55940 (Alexis). The purpose of this experiment is to determine the potency of the compounds of the invention as agonists or antagonists toward each of the receptor tested.
(§2) [^35S]-GTPγS binding reactions were performed at 30° C. in 96-well plates containing 5-10 μg membrane protein suspended in 0.1 ml binding buffer [20 mM HEPES-NaOH, pH 7.4, 5 mM MgCl2, 100 mM NaCl, 0.2% (w/v) bovine serum albumin] supplemented with 50 μM GDP and 0.06 nM-10 μM of the compound being tested. Binding was initiated by the addition of [^35S]GTPγS (0.3 nM final concentration). Incubations were performed for 90 minutes and were terminated by filtration on GF/C filter plates (PerkinEimer). Filters were washed ten times with ice-cold wash buffer (20 mM HEPES-NaOH, pH 7.4, 10 mM sodium pyrophosphate). Non-specific binding was measured in the presence of 15 μM GTPγS.
(§3) Assays were performed in duplicates. Data was analyzed by plotting on the X axis the log concentration against percent of specific [^35S]GTPγS binding out of basal [^35S]GTPγS binding on the Y axis, non-linear regression is then performed using GraphPad Prism, version 3.0 (GraphPad, San Diego, Calif.) to calculate the EC50 and Emax of the compound. The EC50 value represents the concentration at which there is 50% [^35S]GTPγS binding and the Emax value the upper plateau of the curve.

Human CB1 Receptor = biological target: T2, Human CB1 Receptor (Homo sapiens, UniProt P21554); experiment: [35S]GTPγS-binding assay, hCB1; type: biochemical; conditions: NB = no binding; for Emax: upper plateau of curve
T2 construct: expressed in transfected cells; host or cells: HEK-293 cells (membranes)
T2 sequence (P21554 whole entry): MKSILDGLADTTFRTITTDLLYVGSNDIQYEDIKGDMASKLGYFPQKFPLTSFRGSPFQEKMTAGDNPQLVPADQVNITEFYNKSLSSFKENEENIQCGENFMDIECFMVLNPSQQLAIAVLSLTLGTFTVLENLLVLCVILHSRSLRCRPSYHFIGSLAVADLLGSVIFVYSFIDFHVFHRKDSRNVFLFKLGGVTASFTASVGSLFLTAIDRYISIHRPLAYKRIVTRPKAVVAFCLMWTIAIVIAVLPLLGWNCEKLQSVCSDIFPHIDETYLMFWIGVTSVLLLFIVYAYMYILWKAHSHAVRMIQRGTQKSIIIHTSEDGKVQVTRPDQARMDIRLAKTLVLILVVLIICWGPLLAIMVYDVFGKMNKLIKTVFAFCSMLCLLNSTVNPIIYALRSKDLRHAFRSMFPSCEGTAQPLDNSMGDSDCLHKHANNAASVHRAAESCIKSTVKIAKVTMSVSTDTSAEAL
Protocol: as §1, §2, §3

[2] = tested on: CB1 related cannabimimetic activity; experiment: Safety: body temperature, catalepsy, spontaneous locomotor activity, elevated plus maze, sensitivity to touch; type: in vivo, ICR male mice; conditions: for adverse cannabimimetic activities in any of the parameters monitored: 2 mg/kg i.v.
Protocol: In the present study, impact of compounds of the invention on the central nervous system was measured by monitoring the body temperature, catalepsy and spontaneous locomotor activity of rodents. These activities are part of the Tetrad assays which are indicative, if all parameters are affected, of CB1 mediated activity. In addition, lack of CNS psychomimetic effect was assessed in the elevated plus maze model. Finally, sensitivity to touch was determined in order to evaluate peripheral CB1 related activity.
ICR male mice (average body weight 25 g, Harlan, Israel) were administered the compounds of the invention i.v. at a dose of 2 mg/kg and at a volume dose of 5 ml/kg. The psychoactive cannabinoid HU-210 was used as positive control at the 100-fold lower dose of 0.02 mg/kg i.v. The following measurements were made starting 15 minutes after compound administration. All tests were completed for each animal within approximately 10 minutes. Rectal temperature was monitored using a thermistor probe (YSI model 400, USA). Spontaneous locomotion was assessed using the open field methodology. The number of squares crossed by the animals were recorded and analyzed during a period of three minutes. At the end of the open field test, the animals were tested for catalepsy symptoms. This was carried out by gently forcing the animal to stand on its hind paws when its front paws are holding on an elevated beam. The time for the animal to step down of the beam was measured in seconds. A normal animal withdraws the beam immediately whereas cataleptic animal tend to stay on the beam. The longer the animal stays leaning on the beam, the more cataleptic the animal is. The behavior of the animals was then assessed in the elevated plus maze. The elevated plus maze consists of two open arms and two arms that are enclosed by high walls (arms 30×10 cm, wall height 20 cm). The elevated plus maze is usually elevated 80 cm above the floor. The mouse is placed on the maze head facing an open arm, and the time spent in the different compartments of the maze (open arms, closed arms and central area) are measured for the next 5 minutes. Results are expressed as percent of the time spent in the open arms, normal animals preferring to stay in the closed arms of the maze. Finally, animals were gently touched by an observer blinded for the treatment group and their sensitivity scored according to the following scale: 0 not sensitive, 1 sensitive and 2 highly sensitive. Results are expressed as average±SEM. At the end of the study, the animals were euthanized.

[3] = tested on: carrageenan induced inflammatory pain and paw edema; experiment: Inflammatory pain and paw edema induced by carrageenan; type: in vivo, Male Sprague Dawley rats; conditions: Rattus norvegicus, ip; 10 mg/kg i.p., 3 hours after carrageenan, reduction in paw swelling; read-out: Percent Inhibition of Inflammatory Pain Responses, Edema
Protocol: Male Sprague Dawley rats (average body weight 200 g, Harlan, Israel) were transiently sedated by placement on dry ice for the duration of the injections. Rats were injected subcutaneously, in the subplantar region of one (right) paw with 0.1 ml of 2% w/v λ Carrageenan in sterile saline. […] Test compounds were, unless otherwise stated, administered i.p. at initial single dose of 3, 10 or 20 mg/kg, and volume dose of 5 ml/kg, immediately after the carrageenan injection. Selected compounds were also tested p.o. following oral gavage. Vehicle and celecoxib treated animals were used as controls. Each treatment group comprised at least seven animals.
Before induction of inflammatory pain and three hours after injection, the animals reactions to pain stimuli were tested in two systems. The first stimulus was thermal and assessed by the Plantar Test according to Hargreaves, using Ugo Basile Model 7370. The scale was set to an intensity of 50 arbitrary units. The latency time till the animal lift a paw as a reaction to the thermal stimulus was recorded for both the inflamed and non-inflamed hind paws. The second stimulus was mechanical (tactile) and assessed using a Dynamic Plantar Sesthesiomether (Ugo Basile Model 73400-002). […] Finally, the impact on paw edema was assessed. Paw thickness was measured using a dial thickness gauge (Spring-dial, constant low pressure gauge, Mitutoyo, TG/L-1, 0.01 mm) and paw volume was measured using a plethysmometer (model #7150, Ugo Basile, Italy). At the end of the study, animals were euthanized.
The results are measured as the differences between the two hind paws at time 0 and 3 hours both as ALT, for the latency time in the thermal part of the study, and as ΔForce, for the mechanical part of the study. The paw volume is expressed as percent from vehicle treated animals. Results are expressed as mean±SEM for each treatment group and the differences among those groups are analyzed by analysis of variance (ANOVA) followed by post-hoc Tukey's test.
Results refer to i.p. treatment with 10 mg/kg. Results marked with one asterisk refer to a dose 3 mg/kg, whereas two asterisks refer to 20 mg/kg. Celecoxib is included as reference.

[4] = GTPγS, Human CB2 Receptor, NB = no binding
[5] = GTPγS, Human CB2 Receptor, upper plateau of curve, NB = no binding

Row | SMILES | EC50 (Human CB2 Receptor; [4]) [nM] | Emax (Human CB2 Receptor; [5]) [%] | EC50 (Human CB1 Receptor) [nM] | Emax (Human CB1 Receptor) [%] | further results
1 | CCCCCCC(C)(C)c1cc(O)c2c(c1)OC1C(I)CCCCC21 (stereo not drawn) [Compound C7S-26, 2-(1,1-Dimethylheptyl)-9-iodo-5,6,7,8,9,9a-hexahydro-4bH-10-oxa-benzo[α]azulen-4-ol] | 0.07 | 38 | 20 | 155 | inhibition in vivo at 2 mg/kg [1]: 26%; selectivity toward CB2 (Human CB2 Receptor; GTPγS agonism, CB2 versus CB1): about 285 fold; agonistic activity toward cannabinoid receptors (in words) (Human CB2 Receptor; GTPγS): agonists toward both receptors with some degree of selectivity toward the CB2 receptor
2 | CCCCCCC(C)(C)c1cc(O)c2c(c1)OC1C2CCC(C)(C)C1O (stereo not drawn) [Compound C6S-8, 3-(1,1-dimethylheptyl)-7,7-dimethyl-5a,6,7,8,9,9a-hexahydro-dibenzofuran-1,6-diol] |  |  |  |  | inhibition in vivo at 2 mg/kg [1]: 37%; adverse cannabimimetic activities in any of the parameters monitored [2]: None
3 | CCCCCCC(C)(C)c1cc(OC(=O)C=CC(=O)O)c2c(c1)OC1CCCCCC21 (stereo not drawn) [Compound C7S-9, But-2-enedioic acid mono-[2-(1,1-dimethylheptyl)-5,6,7,8,9,9a-hexahydro-4bH-10-oxa-benzo[α]azulen-4-yl]ester] | 712 | 52 | > 10000 |  | inhibition in vivo at 2 mg/kg [1]: 26%
4 | CCCCCCC(C)(C)c1cc(OC)cc2oc3c(c12)CC(C)(C)CC3=O [Compound C6M-7, 9-(1,1-dimethylheptyl)-7-methoxy-2,2-dimethyl-2,3-dihydro-1H-dibenzofuran-4-one] |  |  |  |  | inhibition in vivo at 10 mg/kg [3]: 26%; adverse cannabimimetic activities in any of the parameters monitored [2]: None
5 | CCCCCCC(C)(C)c1cc(O)c2c(c1)OC1CCCCC(C(=O)O)C21 (stereo not drawn) [Compound C7S-31, 2-(1,1-Dimethylheptyl)-4-hydroxy-5,6,7,8,9,9a-hexahydro-4bH-10-oxa-benzo[α]azulen-5-carboxylic acid] | 641 | 54 | > 10000 |  | 
6 | CCCCCCC(C)(C)c1cc(O)c2c(c1)OC1C(O)CCCCC21 (single isomer, unassigned) [Compound C7S-30, 2-(,1-dimethylheptyl)-5,6,7,8,9,9a-hexahydro-4bH-10-oxa-benzo[α]azulen-4,9-diol] | 1030 |  | > 10000 |  | Emax (%) (Human CB2 Receptor; [5]): 66%
7 | CCCCCCC(C)(C)c1cc(O)c2c3c(oc2c1)CC(C)(C)CC3 [Compound C6M-10, 3-(1,1-Dimethylheptyl)-7,7-dimethyl-6,7,8,9-tetrahydro-dibenzofuran-1-ol] | 25 | 72 | 5300 | 132 | agonistic activity toward cannabinoid receptors (in words) (Human CB2 Receptor; GTPγS): agonists specific toward the CB2 receptor
8 | CCCCCCC(C)(C)c1cc(OC(=O)C=CC(=O)O)c2c(c1)OC1CC(C)(C)CCC21 (stereo not drawn) [Compound C6S-37, But-2-enedioic acid mono-[3-(1,1-dimethylheptyl)-7,7-dimethyl-5a,6,7,8,9,9a-hexahydro-dibenzofuran-1-yl]ester] | 24 | 44 | 3970 | 102 | agonistic activity toward cannabinoid receptors (in words) (Human CB2 Receptor; GTPγS): agonists specific toward the CB2 receptor
9 | CC1(C)CCC2c3c(O)cc(C4(CCc5ccccc5)SCCS4)cc3OC2C1 (stereo not drawn) [Compound C6S-38, 7,7-dimethyl-3-(2-phenethyl-[1,3]dithiolan-2-yl)-5a,6,7,8,9,9a-hexahydro-dibenzofuran-1-ol] | 184 | 19 | > 10000 |  | 
10 | CCCCCCC(C)(C)c1cc(O)c2c(c1)OC1C(=NO)CCCC21 (stereo not drawn) [Compound C6S-27, 7-(1,1-Dimethylheptyl)-9-hydroxy-2,3,4a,9b-tetrahydro-1H-dibenzofuran-4-one oxime] | 5560 | 64 | > 10000 |  | 
11 | CCCCCCC(C)(C)c1ccc([C@@H]2C[C@H](O)CC[C@H]2CCCO)c(O)c1 [CP55940, reference compound] |  | 30 to 60 |  | 50 to 100 | 
12 | CCCCCCC(C)(C)c1cc(O)c2c(c1)OC(C)(C)[C@@H]1CC=C(CO)C[C@@H]21 [HU-210, reference compound] |  |  |  |  | less squares crossed ([2]; 0.02 mg/kg i.v.): more than 50%; number of squares crossed (spontaneous locomotor activity) ([2]; 0.02 mg/kg i.v., period of three minutes, vehicle 75.63±6.24): 32.33±10.21; drop of rectal temperature ([2]; 0.02 mg/kg i.v., statistically significant): about 2 °C; sensitivity to touch, average score ([2]; 0.02 mg/kg i.v., scale 0 not sensitive, 1 sensitive, 2 highly sensitive): above 1; rectal temperature ([2]; 0.02 mg/kg i.v., vehicle 38.88±0.11° C.): 36.73±0.29 °C; time spent in the open arms of the elevated plus maze ([2]; 0.02 mg/kg i.v., vehicle about 15%): ~41%

— patent US20090054376A1, “BENZOFURAN DERIVATIVES WITH THERAPEUTIC ACTIVITIES” (Pharmos Corporation, priority 2005, published 2009)
